In the experiment the target is T1, human FFAR1 (GPR40) (Homo sapiens, UniProt O14842).
T1 construct: Flag; expressed in transfected cells; host or cells: HEK293T
The experiment in a line: NFAT-RE-based reporter gene activity assay (Dual-Glo luciferase) for GPR40 agonistic activity in co-transfected HEK293T cells. It is filed as cell-based. The following applies: 4-hour treatment; for Efficacy (%): class symbols. From the text: The pcDNA3.0-flag-FFAR1 (GPR40) plasmid was constructed using conventional molecular cloning methods. The main steps were as follows: The full-length cDNA sequence of human FFAR1 (GPR40) (NM_005303.3) was inserted into the HindIII and XbaI restriction sites of the pcDNA3.0 vector via PCR technology, resulting in the pcDNA3.0-flag-FFAR1 (GPR40) plasmid; pGL4.30 [luc2P NFAT-RE] (# E8481) and pRL-TK (#E2241) plasmids were both purchased from Promega; the plasmids were transformed into DH5α E. coli using the CaCl2 method, further cultured and amplified, and then purified using a plasmid extraction kit (TIANGEN, # DP117) to obtain the corresponding plasmid DNA.
HEK293T cells were seeded in a 96-well plate at a density of 1 × 10^4/well one day prior to plasmid transfection. Cell transfection was performed according to the instructions of the transfection reagent FuGENE® HD (Promega, # E2311). The main steps were as follows: Taking one well as an example, plasmids pcDNA3.0-flag-FFAR1 (GPR40), pGL4.30 [luc2P NFAT-RE], and pRL-TK were added at ratios of 50 ng, 50 ng, and 5 ng, respectively, into 10 µL of Opti-MEM™ I medium (Gibco, #11058021) and mixed thoroughly; then, 0.2 µL of FuGENE® HD was added, mixed thoroughly, and allowed to stand at room temperature for 5 minutes; finally, this 10 µL mixture was added to the cell well containing 100 µL of culture medium. 24 hours after co-transfection, the compounds were serially diluted at half-logarithmic intervals with 1 µM as the highest concentration, resulting in 10 concentration gradients, which were added to the cell culture medium for a 4-hour treatment.
After 4 hours of compound treatment, the cells were assayed according to the instructions of the Dual-Glo® Luciferase Assay System (Promega, # E2940). The main steps were as follows: 50 µL of culture medium was aspirated from each well and discarded, followed by the addition of 50 µL of Dual-Glo® Luciferase Reagent, and the mixture was shaken at room temperature for 10 minutes. Then, 80 µL of the lysate reaction solution was transferred to a white opaque optiPlate-96 well plate, and the luminescence signal of Firefly luciferase (Firefly-Luc) was measured using an MD i3x multifunctional microplate reader. Subsequently, 40 µL of Dual-Glo® Stop & Glo® Reagent was added, and the mixture was shaken at room temperature for 10 minutes. Finally, the luminescence signal of Renilla luciferase (Renilla-Luc) was measured using the MD i3x multifunctional microplate reader. The ratio of Firefly-Luc/Renilla-Luc was used as the compound's agonistic activity toward GPR40, and normalization was performed using the ratio of the solvent DMSO group. A dose-response curve was fitted using a four-parameter model with GraphPad Prism 8.0 software to calculate the EC50 value.
On the technique in general: A reporter such as luciferase makes a cellular process visible.

Here are results for 35 compounds from patent publication EP4682145A1, “BENZOHETEROCYCLIC COMPOUND, AND PREPARATION METHOD THEREFOR AND USE THEREOF” (Cascade Pharmaceuticals, Inc., priority 2023, dated 2024).

pEC50: −log10 of the molar value.

Broadly, the pEC50 is the negative decadic logarithm of the EC50, by convention in mol/L. Read a high pEC50 as a low EC50.

T1 sequence (O14842 whole entry): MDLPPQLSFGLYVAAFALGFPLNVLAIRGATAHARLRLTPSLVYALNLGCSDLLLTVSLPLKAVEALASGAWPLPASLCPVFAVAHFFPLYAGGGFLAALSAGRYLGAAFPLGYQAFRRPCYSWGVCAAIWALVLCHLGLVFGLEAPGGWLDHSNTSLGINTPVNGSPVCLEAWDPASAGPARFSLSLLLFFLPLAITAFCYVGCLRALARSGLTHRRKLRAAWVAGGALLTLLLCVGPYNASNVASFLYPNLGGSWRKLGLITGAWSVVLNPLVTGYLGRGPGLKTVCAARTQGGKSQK

Turning to `COc1ccc(F)c(N2CCC(c3oc4cc(C(CC(=O)O)C5CC5)ccc4c3-c3cccc(NC(C)C)c3)CC2)c1` (stereo not shown) [Compound 187], the pEC50 is 6.30 to 7.00 and the “Efficacy (%)” value is listed as “†† (150 ≥ Efficacy (%) > 100)”.

Take `COc1ccc(F)c(N2CCC(c3oc4cc([C@@H](CC(=O)O)C5CC5)ccc4c3C(=O)Nc3cc(C)ccc3Cl)CC2)c1` [Compound 343]: the pEC50 was not below 8.00 and the “Efficacy (%)” value is “††† (Efficacy (%) > 150)”.

`COc1ccc(F)c(N2CCC(c3oc4cc([C@@H](CC(=O)O)C5CC5)ccc4c3-c3ccc(C(=O)NCC(C)(C)C)cc3)CC2)c1` [Compound 198]: the negative logarithm of the EC50 (pEC50) was 6.30 to 7.00 and the “Efficacy (%)” value is on record as “†† (150 ≥ Efficacy (%) > 100)”.

Consider `COc1cccc(N2CCC(c3oc4cc([C@@H](CC(=O)O)C5CC5)ccc4c3C(=O)Nc3cc(F)ccc3Br)CC2)c1` [Compound 271], for which the negative-log EC50 (pEC50) was not below 8.00 and the “Efficacy (%)” value is given as “††† (Efficacy (%) > 150)”.

With `C=C(C)c1ccc(-c2c(C3CCN(c4cccc(OC)c4)CC3)oc3cc(C(CC(=O)O)C4CC4)ccc23)cc1` (stereo not shown) [Compound 30], the pEC50 is 6.30 to 7.00 and the “Efficacy (%)” value was “†† (150 ≥ Efficacy (%) > 100)”.

For the compound `COc1cccc(N2CCC(c3oc4cc(C(CC(=O)O)C5CC5)ccc4c3C(=O)Nc3cccc(F)c3F)CC2)c1` (stereo not shown) [Compound 254], the pEC50 is 6.30 to 7.00 and the “Efficacy (%)” value was “††† (Efficacy (%) > 150)”.

Take `COc1cccc(N2CCC(c3oc4cc([C@@H](CC(=O)O)C5CC5)ccc4c3C(=O)Nc3ccccc3F)CC2)c1F` [Compound 323]: the pEC50 was not below 8.00 and the “Efficacy (%)” value is reported as “†† (150 ≥ Efficacy (%) > 100)”.

`COc1cccc(N2CCC(c3oc4cc([C@@H](CC(=O)O)C5CC5)ccc4c3C(C)OCC[C@@H](C)CCCC(C)C)CC2)c1` (stereo partly shown) [Compound 414]: the pEC50 was less than 6.30 and the “Efficacy (%)” value is given as “††† (Efficacy (%) > 150)”.

For `CCC(OCC(C)(C)C)c1c(C2CCN(c3cccc(OC)c3)CC2)oc2cc([C@@H](CC(=O)O)C3CC3)ccc12` (stereo partly shown) [Compound 416], the pEC50 is 7.00 to 8.00 and the “Efficacy (%)” value is on record as “†† (150 ≥ Efficacy (%) > 100)”.

As for `COc1cccc(N2CCC(c3oc4cc(C(CC(=O)O)C5CC5)ccc4c3-c3ncn(C)n3)CC2)c1` (stereo not shown) [Compound 121], the negative logarithm of the EC50 (pEC50) is less than 6.30 and the “Efficacy (%)” value is on record as “†† (150 ≥ Efficacy (%) > 100)”.

As for `COc1cccc(N2CCC(c3oc4cc(C(CC(=O)O)C5CC5)ccc4c3-c3cn(C(C)C)cn3)CC2)c1` (stereo not shown) [Compound 104], the pEC50 is less than 6.30 and the “Efficacy (%)” value is “†† (150 ≥ Efficacy (%) > 100)”.

As for `COc1cccc(N2CCC(c3oc4cc([C@@H](CC(=O)O)C5CC5)ccc4c3-c3nc(C(C)(C)C)cs3)CC2)c1` [Compound 110], the pEC50 is 7.00 to 8.00 and the “Efficacy (%)” value was “†† (150 ≥ Efficacy (%) > 100)”.

For the compound `O=C(O)C[C@H](c1ccc2c(C(=O)Nc3cc(C(F)(F)F)ccc3Cl)c(C3CCN(c4ccc5c(c4)OCO5)CC3)oc2c1)C1CC1` [Compound 335], the pEC50 is not below 8.00 and the “Efficacy (%)” value is “†† (150 ≥ Efficacy (%) > 100)”.

Regarding `COc1cccc(N2CCC(c3oc4cc(C(CC(=O)O)C5CC5)ccc4c3-c3cccc(C(C)(C)C)c3)CC2)c1` (stereo not shown) [Compound 11], the pEC50 is 7.00 to 8.00 and the “Efficacy (%)” value is listed as “††† (Efficacy (%) > 150)”.

As to `Cc1ccc(Cl)c(NC(=O)c2c(C3CCN(c4ccc5c(c4)OCO5)CC3)oc3cc([C@@H](CC(=O)O)C4CC4)ccc23)c1` [Compound 332], the negative logarithm of the EC50 (pEC50) was not below 8.00 and the “Efficacy (%)” value is “†† (150 ≥ Efficacy (%) > 100)”.

Turning to `COc1ccc(F)c(N2CCC(c3oc4cc(C(CC(=O)O)C5CC5)ccc4c3-c3ccc(C)cc3)CC2)c1` (stereo not shown) [Compound 160], the pEC50 was 6.30 to 7.00 and the “Efficacy (%)” value is listed as “†† (150 ≥ Efficacy (%) > 100)”.

Turning to `COc1cccc(N2CCC(c3oc4cc([C@@H](CC(=O)O)C5CC5)ccc4c3-c3cnn(C(C)(C)C)c3)CC2)c1F` [Compound 87], the pEC50 was 7.00 to 8.00 and the “Efficacy (%)” value was “†† (150 ≥ Efficacy (%) > 100)”.

Regarding `CC(C)(C)c1cccc(-c2c(C3CCN(c4ccccc4F)CC3)oc3cc(C(CC(=O)O)C4CC4)ccc23)c1` (stereo not shown) [Compound 9], the pEC50 is 6.30 to 7.00 and the “Efficacy (%)” value was “†† (150 ≥ Efficacy (%) > 100)”.

Turning to `CN1CCC(c2oc3cc(C(CC(=O)O)C4CC4)ccc3c2-c2cccc(C(C)(C)C)c2)CC1` (stereo not shown) [Compound 1], the pEC50 was less than 6.00 and the “Efficacy (%)” value was “† (100 ≥ Efficacy (%) > 50)”.

On to `CC(C)(C)c1cccc(-c2c(C3CCN(c4cccc(F)c4)CC3)oc3cc(C(CC(=O)O)C4CC4)ccc23)c1` (stereo not shown) [Compound 8], for which the pEC50 was less than 6.30 and the “Efficacy (%)” value is listed as “†† (150 ≥ Efficacy (%) > 100)”.

With `COc1ccc(F)c(N2CCC(c3oc4cc([C@@H](CC(=O)O)C5CC5)ccc4c3-c3cccc(OC(F)(F)F)c3)CC2)c1` [Compound 173], the pEC50 is 6.30 to 7.00 and the “Efficacy (%)” value is listed as “††† (Efficacy (%) > 150)”.

Consider `COc1cccc(N2CCC(c3oc4cc([C@@H](CC(=O)O)C5CC5)ccc4c3C(C)OCC3CCCC3)CC2)c1` (stereo partly shown) [Compound 419], for which the pEC50 is 7.00 to 8.00 and the “Efficacy (%)” value is reported as “††††”.

`CCC(CC(=O)O)c1ccc2c(-c3cccc(C(C)(C)C)c3)c(C3CCN(c4cc(OC)ccc4F)CC3)oc2c1` (stereo not shown) [Compound 233]: the pEC50 was 6.30 to 7.00 and the “Efficacy (%)” value was “†† (150 ≥ Efficacy (%) > 100)”.

For `COc1ccc(F)c(N2CCC(c3oc4cc([C@H](CC(=O)O)C5CC5)ccc4c3-c3ccc(C(C)(C)C)cc3)CC2)c1` [Compound 170], the pEC50 is 6.30 to 7.00 and the “Efficacy (%)” value is on record as “†† (150 ≥ Efficacy (%) > 100)”.

Regarding `COC(=O)C(C)(C)n1cc(-c2c(C3CCN(c4cccc(OC)c4)CC3)oc3cc(C(CC(=O)O)C4CC4)ccc23)cn1` (stereo not shown) [Compound 132], the pEC50 was 6.30 to 7.00 and the “Efficacy (%)” value is given as “††† (Efficacy (%) > 150)”.

Turning to `COc1cccc(N2CCC(c3oc4cc(C(CC(=O)O)C5CC5)ccc4c3C(=O)Nc3ncc(C(C)(C)C)s3)CC2)c1` (stereo not shown) [Compound 299], the negative logarithm of the EC50 (pEC50) is 6.30 to 7.00 and the “Efficacy (%)” value was “†† (150 ≥ Efficacy (%) > 100)”.

Turning to `COc1cccc(N2CCC(c3oc4cc([C@@H](CC(=O)O)C5CC5)ccc4c3C(=O)Nc3ccccc3OC(F)(F)F)CC2)c1` [Compound 240], the negative-log EC50 (pEC50) is 6.30 to 7.00 and the “Efficacy (%)” value was “†† (150 ≥ Efficacy (%) > 100)”.

With `COc1cccc(N2CCC(c3oc4cc(C(CC(=O)O)C5CC5)ccc4c3-c3cnn(C(C)(C)C(=O)N(C)C)c3)CC2)c1` (stereo not shown) [Compound 53], the negative logarithm of the EC50 (pEC50) is 6.30 to 7.00 and the “Efficacy (%)” value is “†† (150 ≥ Efficacy (%) > 100)”.

Turning to `COc1cccc(N2CCC(c3oc4cc([C@@H](CC(=O)O)C5CC5)ccc4c3C(=O)Nc3ccccc3C)CC2)c1` [Compound 239], the pEC50 was 7.00 to 8.00 and the “Efficacy (%)” value is on record as “††† (Efficacy (%) > 150)”.

In the case of `COc1cccc(N2CCC(c3oc4cc(C(CC(=O)O)C5CC5)ccc4c3-c3cccc(NC(=O)CC(C)(C)C)n3)CC2)c1` (stereo not shown) [Compound 149], the pEC50 was 6.30 to 7.00 and the “Efficacy (%)” value is reported as “†† (150 ≥ Efficacy (%) > 100)”.

With `COc1cccc(N2CCC(c3oc4cc([C@@H](CC(=O)O)C5CC5)ccc4c3C(=O)Nc3cc([N+](=O)[O-])ccc3Cl)CC2)c1` [Compound 276], the pEC50 is 7.00 to 8.00 and the “Efficacy (%)” value is reported as “†† (150 ≥ Efficacy (%) > 100)”.

Turning to `COc1ccc(F)c(N2CCC(c3oc4cc([C@@H](CC(=O)O)C5CC5)ccc4c3-c3ccc(C(C)OC)cc3)CC2)c1` (stereo partly shown) [Compound 176], the pEC50 was 6.30 to 7.00 and the “Efficacy (%)” value is “†† (150 ≥ Efficacy (%) > 100)”.

`COc1ccc(F)c(N2CCC(c3oc4cc([C@@H](CC(=O)O)C5CC5)ccc4c3-c3ccc(C(C)(C)O)cc3)CC2)c1` [Compound 177]: the negative logarithm of the EC50 (pEC50) was 6.30 to 7.00 and the “Efficacy (%)” value is “†† (150 ≥ Efficacy (%) > 100)”.

Regarding `COc1ccc(F)c(N2CCC(c3oc4cc(C(CC(=O)O)C5CC5)ccc4c3-c3ccc(SC)cc3)CC2)c1` (stereo not shown) [Compound 181], the negative logarithm of the EC50 (pEC50) is 6.30 to 7.00 and the “Efficacy (%)” value is “†† (150 ≥ Efficacy (%) > 100)”.

Take `COc1cccc(N2CCC(c3oc4cc([C@@H](CC(=O)O)C5CC5)ccc4c3C(=O)Nc3ccccc3C(F)(F)F)CC2)c1` [Compound 238]: the negative-log EC50 (pEC50) is 7.00 to 8.00 and the “Efficacy (%)” value was “††† (Efficacy (%) > 150)”.
